Values of other authors as cited in patent US5932596A, “Imidazoylalkyl substituted with a six membered nitrogen containing nitrogen containing heterocyclic ring” (Schering Corporation, priority 1995, dated 1999).

Tested on: H3 receptors
Settings: rat brain; Arrang et al.

## NCCc1c[nH]cn1 [histamine]
  maximal inhibition of release: approximately 60%
